Assay results: patent US8455507B2, “Aminopyrimidines useful as kinase inhibitors” (Vertex Pharmaceuticals Incorporated, priority 2007, dated 2013)

How the values were obtained:
Colo205 cells = test: Analysis of Cell Proliferation and Viability; format: cell-based; conditions: Homo sapiens, COLO 205, 72 hours, lower bound 100 nM, upper bound 1 uM nM [sic], read-out: IC50 values after 72 hours
Experimental: Compounds were screened for their ability to inhibit cell proliferation and their effects on cell viability using Colo205 cells obtained from ECACC and using the assay shown below.
Colo205 cells were seeded in 96 well plates and serially diluted compound was added to the wells in duplicate. Control groups included untreated cells, the compound diluent (0.1% DMSO alone) and culture medium without cells. The cells were then incubated for 72 or 96 hrs at 37 C in an atmosphere of 5% CO2/95% humidity.
To measure proliferation, 3 h prior to the end of the experiment 0.5 μCi of 3H thymidine was added to each well. Cells were then harvested and the incorporated radioactivity counted on a Wallac microplate beta-counter. Cell viability was assessed using Promega CellTiter 96AQ to measure MTS conversion. Dose response curves were calculated using either Prism 3.0 (GraphPad) or SoftMax Pro 4.3.1 LS (Molecular Devices) software.

Aurora-2 (Aurora A) = molecular target: T1, Aurora-2 (Aurora A) (Homo sapiens, UniProt O14965); test: Aurora-2 (Aurora A) Inhibition Assay (coupled enzyme assay); format: biochemical; conditions: 400 μM ATP, 40 nM Aurora-2, 30° C.; read-out: inhibit Aurora A, Ki
T1 sequence (O14965 1-403): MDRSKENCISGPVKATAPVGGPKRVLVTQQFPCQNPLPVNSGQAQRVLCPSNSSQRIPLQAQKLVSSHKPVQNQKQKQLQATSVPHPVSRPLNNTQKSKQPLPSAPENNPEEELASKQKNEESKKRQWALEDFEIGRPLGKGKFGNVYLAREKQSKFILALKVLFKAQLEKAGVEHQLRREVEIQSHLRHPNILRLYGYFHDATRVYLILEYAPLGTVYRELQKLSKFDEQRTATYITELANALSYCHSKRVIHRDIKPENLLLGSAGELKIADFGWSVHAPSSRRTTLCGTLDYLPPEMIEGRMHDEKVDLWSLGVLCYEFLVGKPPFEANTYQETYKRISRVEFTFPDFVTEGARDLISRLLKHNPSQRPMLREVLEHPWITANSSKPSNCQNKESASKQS
Experimental: Compounds were screened for their ability to inhibit Aurora-2 using a standard coupled enzyme assay (Fox et al., Protein Sci., (1998) 7, 2249). Assays were carried out in a mixture of 100 mM Hepes (pH7.5), 10 mM MgCl2, 1 mM DTT, 25 mM NaCl, 2.5 mM phosphoenolpyruvate, 300 μM NADH, 30 μg/ml pyruvate kinase and 10 μg/ml lactate dehydrogenase. Final substrate concentrations in the assay were 400 μM ATP (Sigma Chemicals) and 570 μM peptide (Kemptide, American Peptide, Sunnyvale, Calif.). Assays were carried out at 30° C. and in the presence of 40 nM Aurora-2.
An assay stock buffer solution was prepared containing all of the reagents listed above, with the exception of Aurora-2 and the test compound of interest. 55 μl of the stock solution was placed in a 96 well plate followed by addition of 2 μl of DMSO stock containing serial dilutions of the test compound (typically starting from a final concentration of 7.5 μM). The plate was preincubated for 10 minutes at 30° C. and the reaction initiated by addition of 10 μl of Aurora-2. Initial reaction rates were determined with a Molecular Devices SpectraMax Plus plate reader over a 10 minute time course. IC50 and Ki data were calculated from non-linear regression analysis using the Prism software package (GraphPad Prism version 3.0cx for Macintosh, GraphPad Software, San Diego Calif., USA).

Aurora-1 (Aurora B) = Aurora-1 (Aurora B) (Homo sapiens, UniProt Q96GD4); test: Aurora-1 (Aurora B) Inhibition Assay (Radiometric); format: biochemical; conditions: 800 μM ATP, 25° C., read-out: inhibit Aurora A, Ki (printed under the Aurora-1 (Aurora B) assay)
Experimental: An assay buffer solution was prepared which consisted of 25 mM HEPES (pH 7.5), 10 mM MgCl2, 0.1% BSA and 10% glycerol. A 22 nM Aurora-B solution, also containing 1.7 mM DTT and 1.5 mM Kemptide (LRRASLG), was prepared in assay buffer. To 22 μL of the Aurora-B solution, in a 96-well plate, was added 2 μl of a compound stock solution in DMSO and the mixture allowed to equilibrate for 10 minutes at 25° C. The enzyme reaction was initiated by the addition of 16 μl stock [γ-^33P]-ATP solution (˜20 nCi/μL) prepared in assay buffer, to a final assay concentration of 800 μM. The reaction was stopped after 3 hours by the addition of 16 μL 500 mM phosphoric acid and the levels of ^33P incorporation into the peptide substrate were determined by the following method.
A phosphocellulose 96-well plate (Millipore, Cat no. MAPHNOB50) was pre-treated with 100 μL of a 100 mM phosphoric acid prior to the addition of the enzyme reaction mixture (40 μL). […] Levels of non-enzyme catalyzed background radioactivity were determined by adding 16 μL of the 500 mM phosphoric acid to control wells, containing all assay components (which acts to denature the enzyme), prior to the addition of the [γ-^33P]-ATP solution. Levels of enzyme catalyzed ^33P incorporation were calculated by subtracting mean background counts from those measured at each inhibitor concentration. […]

[1] = molecular target: N-terminally truncated (Δ27) Abl kinase (Homo sapiens, UniProt P00519); test: Abl Kinase Activity Inhibition Assay (coupled enzyme system); format: biochemical; conditions: 110 μM ATP, 21 nM Abl kinase, 30° C.; read-out: inhibit Abl kinase, Ki value
Experimental: Compounds were screened for their ability to inhibit N-terminally truncated (Δ27) Abl kinase activity using a standard coupled enzyme system (Fox et al., Protein Sci., 7, pp. 2249 (1998)). Reactions were carried out in a solution containing 100 mM HEPES (pH 7.5), 10 mM MgCl2, 25 mM NaCl, 300 μM NADH, 1 mM DTT and 3% DMSO. Final substrate concentrations in the assay were 110 μM ATP (Sigma Chemicals, St Louis, Mo.) and 70 μM peptide (EAIYAAPFAKKK, American Peptide, Sunnyvale, Calif.). Reactions were carried out at 30° C. and 21 nM Abl kinase. Final concentrations of the components of the coupled enzyme system were 2.5 mM phosphoenolpyruvate, 200 μM NADH, 60 μg/ml pyruvate kinase and 20 μg/ml lactate dehydrogenase.
An assay stock buffer solution was prepared containing all of the reagents listed above with the exception of ATP and the test compound of interest. The assay stock buffer solution (60 μl) was incubated in a 96 well plate with 2 μl of the test compound of interest at final concentrations typically spanning 0.002 μM to 30 μM at 30° C. for 10 min. […] Rates of reaction were obtained using a Molecular Devices Spectramax plate reader (Sunnyvale, Calif.) over 10 min at 30° C. The Ki values were determined from the residual rate data as a function of inhibitor concentration using nonlinear regression (Prism 3.0, Graphpad Software, San Diego, Calif.).

Sequence of N-terminally truncated (Δ27) Abl kinase (P00519 whole entry, stated change not applied, the tested form may be a part): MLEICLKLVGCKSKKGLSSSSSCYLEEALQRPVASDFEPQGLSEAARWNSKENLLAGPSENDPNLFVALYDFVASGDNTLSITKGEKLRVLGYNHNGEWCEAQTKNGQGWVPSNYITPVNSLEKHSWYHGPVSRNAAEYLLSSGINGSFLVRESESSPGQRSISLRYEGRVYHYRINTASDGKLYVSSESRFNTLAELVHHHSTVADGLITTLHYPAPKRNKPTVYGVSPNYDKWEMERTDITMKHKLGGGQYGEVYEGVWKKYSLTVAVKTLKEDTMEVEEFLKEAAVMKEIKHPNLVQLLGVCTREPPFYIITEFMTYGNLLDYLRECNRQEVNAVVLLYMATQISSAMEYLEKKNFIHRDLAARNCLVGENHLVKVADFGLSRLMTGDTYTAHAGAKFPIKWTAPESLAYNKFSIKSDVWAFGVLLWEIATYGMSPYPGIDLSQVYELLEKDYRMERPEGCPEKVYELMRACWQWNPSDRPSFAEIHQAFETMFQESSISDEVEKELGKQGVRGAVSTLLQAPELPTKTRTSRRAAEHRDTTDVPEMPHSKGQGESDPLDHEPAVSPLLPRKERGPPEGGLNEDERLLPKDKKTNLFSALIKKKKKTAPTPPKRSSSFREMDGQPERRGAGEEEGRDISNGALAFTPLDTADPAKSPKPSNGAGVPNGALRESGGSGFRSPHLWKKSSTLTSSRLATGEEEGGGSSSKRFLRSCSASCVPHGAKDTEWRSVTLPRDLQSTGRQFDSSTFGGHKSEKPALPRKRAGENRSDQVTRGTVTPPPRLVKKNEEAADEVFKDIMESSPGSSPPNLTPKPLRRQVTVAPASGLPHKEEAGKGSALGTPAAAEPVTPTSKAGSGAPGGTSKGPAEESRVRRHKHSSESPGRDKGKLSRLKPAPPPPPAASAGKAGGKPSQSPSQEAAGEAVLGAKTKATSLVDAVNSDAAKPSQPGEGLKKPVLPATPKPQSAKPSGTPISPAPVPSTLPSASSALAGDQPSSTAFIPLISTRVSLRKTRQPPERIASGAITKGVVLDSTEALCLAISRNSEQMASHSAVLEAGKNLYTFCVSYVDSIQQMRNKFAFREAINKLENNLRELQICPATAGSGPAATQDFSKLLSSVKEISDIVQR
Sequence of Aurora-1 (Aurora B) (Q96GD4 whole entry): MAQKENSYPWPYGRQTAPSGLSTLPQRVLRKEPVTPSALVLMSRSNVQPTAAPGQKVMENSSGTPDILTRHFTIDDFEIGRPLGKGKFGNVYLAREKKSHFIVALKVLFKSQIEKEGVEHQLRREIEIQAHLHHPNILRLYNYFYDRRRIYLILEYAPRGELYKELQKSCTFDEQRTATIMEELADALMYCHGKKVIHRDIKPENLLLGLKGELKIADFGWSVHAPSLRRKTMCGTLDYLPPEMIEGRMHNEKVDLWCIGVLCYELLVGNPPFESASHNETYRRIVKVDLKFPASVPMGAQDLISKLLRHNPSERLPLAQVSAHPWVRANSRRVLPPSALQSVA

IC50 (Colo205 cells) [nM]	Structure (SMILES)	other results
100 to 1000	Cc1cc(Nc2cc(N3CCN(C4CC4)CC3)nc(Sc3ccc4nc(C(F)(F)F)cn4c3)n2)[nH]n1 [Compound I-14]	
100 to 1000	Cc1cc(Nc2cc(N3CCN(C(C)(C)CF)CC3)nc(Sc3ccc4nc(C(F)(F)F)cn4c3)n2)[nH]n1 [Compound I-11]	
100 to 1000	Cc1cc(Nc2cc(N3CCN(CC(F)(F)F)CC3)nc(Sc3ccc4nc(C(F)(F)F)cn4c3)n2)[nH]n1 [Compound I-22]	
100 to 1000	Cc1cc(Nc2cc(N3CCN(C4CC4)CC3)nc(Sc3cc(F)c4nc(C)ccc4c3)n2)[nH]n1 [Compound I-15]	

The remaining lines, values behind:

Structure (SMILES)	IC50 (Colo205 cells) [nM]	other results
Cc1cc(Nc2cc(N3CCN(C(C)(C)CF)CC3)nc(Sc3ccc4nc(C(F)(F)F)n(C)c4c3)n2)[nH]n1 [Compound I-21]	100 to 1000	
Cc1cc(Nc2cc(N3CCN(C4CCN(C)CC4)CC3)nc(Sc3cc(F)c4nc(C)ccc4c3)n2)[nH]n1 [Compound I-13, 2-(8-fluoro-2-methylquinolin-6-ylthio)-N-(3-methyl-1H-pyrazol-5-yl)-6-(4-(1-methylpiperidin-4-yl)piperazin-1-yl)pyrimidin-4-amine]		Ki (Aurora-2 (Aurora A)): 1 to 2 nM; Ki (Aurora-1 (Aurora B)): 10 to 20 nM; Ki [1]: < 25 nM
Cc1cc(Nc2cc(N3CCN(C(C)(C)CF)CC3)nc(Sc3cc(F)c4nc(C)ccc4c3)n2)[nH]n1 [Compound I-6]	100 to 1000	
Cc1cc(Nc2cc(N3CCN(CC(F)(F)F)CC3)nc(Sc3cc(F)c4nc(C)ccc4c3)n2)[nH]n1 [Compound I-23]	100 to 1000	
